Legend:
Format in all cases: cell-based, mouse
CT-26 cells [1] = test: Ethidium-homodimer internalization in CT-26 cells, fluorescent confocal microscopy; settings: EtDi alone, without conjugate
Description: CT-26 cells in culture were co-incubated with the conjugate system, 4-hydroxybutyl L-tryptophanate, (1 mg/ml) and Etidium-homodimer (2 μl/ml) for 1 hour and observed under fluorescent confocal microscope. Working ratio was set as 1:3 and two reaction sets comprising of higher (80 μl) loading and standard loading (40 μl ) were performed. Emission bandwidth was set as 490-550nm and 590-680 nm.

CT-26 cells [2] = test: Internalization of Paclitaxel (PTX) in CT-26 cells measured by flow cytometry
Description: There is a remarkable increment in the percentage of cells containing PTX when co-administered with the conjugate, especially after 24 hours incubation. (c) depicts the amount of PTX internalization expressed as mean fluorescence intensity (MFI).

CT26 cells = test: Uptake of Oxaliplatin by CT26 cells measured by ICP-MS; settings: 30 μM OxPt alone, peaking at 4 h
Description: CT26 cells were seeded in 24-well plate (100.000 cells/mL/well) exposed to Oxaliplatin (Ox-Pt, 10 μM and 30 μM) with/and without conjugate the molar ratio of 1:1, 1:3 and 3:1 respectively. After 1, 4, 24 hours of incubation, media was discarded and the cells were washed with PBS twice, once with heparin (to remove anything associated externally with the cell membrane) and once more with PBS. Then the cells were detached from the wells using trypsin and cells were counted. Finally, each sample was diluted in HCl acid and further diluted in 2% HCl with (0.5 ppb Ir), then Pt content was measured in the ICP-MS.

SMILES: Nc1ccc2c(c1)c(-c1ccccc1)[n+](CCCNCCNCCC[n+]1c(-c3ccccc3)c3cc(N)ccc3c3ccc(N)cc31)c1cc(N)ccc21 [EtDi, Ethidium-homodimer, reference compound]
- cell penetration of EtDi (CT-26 cells [1]): cannot penetrate into the cell

SMILES: CC(=O)O[C@H]1C(=O)[C@@]2(C)[C@H]([C@H](OC(=O)c3ccccc3)[C@]3(O)C[C@H](OC(=O)[C@H](O)[C@@H](NC(=O)c4ccccc4)c4ccccc4)C(C)=C1C3(C)C)[C@]1(OC(C)=O)CO[C@@H]1C[C@@H]2O [PTX, Paclitaxel, reference compound]
- % cells uptake (1 h), CT-26 cells with PTX internalized (CT-26 cells [2]; PTX 10 μM alone): 2.3%
- % cells uptake (4 h), CT-26 cells with PTX internalized (CT-26 cells [2]; PTX 10 μM alone): 2.4%
- % cells with uptake (24 h), CT-26 cells with PTX internalized (CT-26 cells [2]; PTX 10 μM alone): 7.7%
- % cells uptake (1 h), CT-26 cells with PTX internalized (CT-26 cells [2]; PTX 30 μM alone): 2.2%
- % cells uptake (4 h), CT-26 cells with PTX internalized (CT-26 cells [2]; PTX 30 μM alone): 3.0%
- % cells with uptake (24 h), CT-26 cells with PTX internalized (CT-26 cells [2]; PTX 30 μM alone): 7.6%

SMILES: O=C1[O][Pt]2([NH][C@@H]3CCCC[C@H]3[NH]2)[O]C1=O [OxPt, Oxaliplatin, reference compound]
- OxPt uptake over time (CT26 cells): no apparent increase
